Assay results reported in patent publication US7304046B2, “Phosphoramide compounds” (priority 1999, dated 2007).

Assays:
[1] = tested on: PaCa-2 (pancreas); experiment: Growth inhibition, MTT assay, PaCa-2; format: cell-based, human; conditions: PaCa-2, 72-h drug exposure, read-out: IC50 growth inhibitory activity
Experimental: (§1) The growth inhibitory properties of representative compounds of the invention were also determined by evaluating their growth inhibitory activity against a series of human tumor cell lines using a 72-h drug exposure. Cell counts were measured using the MTT assay.

[2] = tested on: BE cells; experiment: Test A: in vitro cytotoxicity, clonogenic survival of BE cells; format: cell-based; conditions: 2 h drug treatment, colonies after 10 days, concentration at which there is a 1% cell survival
Excerpt: (§2) Test A: In Vitro Cytotoxicity (Clonogenic Survival of HT-29 and BE Cells):
(§3) The human colon carcinoma cell line HT-29 was obtained from the American Type Culture Collection (ATCC), and the BE cell line was provided by Dr. D. Ross, University of Colorado. A modification of the procedure described by Miribelli et al Cancer Research, 1985, 45, 32–39 was used to determine the clonogenic survival of the cells. HT-29 and BE cells in exponential growth were suspended in unsupplemented Eagles MEM medium (10 mL) at a final density of 1.7–2×10^5 cells/mL. Unsupplemented medium contains Minimum Essential Medium (Gibco) and HEPES (0.02 M). The drug stock solutions (0.1–40 mM) were prepared using either ethanol or dimethyl sulfoxide as solvent. The maximum amount of DMSO or ethanol used in the drug treatments was 1% of the total volume. Appropriate volumes (6.5 to 100 μL) of the drug stock solution were added to five vials of the cell suspensions, to give five different final drug concentrations, and 100 μL of solvent was added to a sixth vial for a control. The treated cells were incubated for 2 h (37° C., 5% CO2). The cells were spun down and rinsed three times with supplemented medium (3 mL) and then diluted in 5 mL of supplemented medium. Supplemented medium is prepared by adding Fetal Bovine Serum (10%), gentamicin (0.05 mg/mL), L-glutamine (0.03 mg/mL), and sodium pyruvate (0.1 mM) to unsupplemented medium. The cells were counted using a Coulter Counter and then plated at 2–3 different densities for each drug concentration and incubated for 10 days. The colonies were stained with 0.5% crystal violet in 95% ethanol and those colonies comprised of 50 or more cells were counted using a microscope and pen-style counter. The LC99 of each compound (the concentration at which there is a 1% cell survival) was determined by plotting the log surviving fraction vs. drug concentration.

[3] = tested on: PC-3 (prostate); experiment: Growth inhibition, MTT assay, PC-3; format: cell-based, human; conditions: PC-3, 72-h drug exposure, read-out: IC50 growth inhibitory activity
Experimental: as §1

[4] = tested on: UMUC3 (bladder); experiment: Growth inhibition, MTT assay, UMUC3; format: cell-based, human; conditions: UMUC3, 72-h drug exposure, read-out: IC50 growth inhibitory activity
Experimental: as §1

[5] = tested on: HT-29 (colon); experiment: Growth inhibition, MTT assay, HT-29; format: cell-based, human; conditions: HT-29, 72-h drug exposure, read-out: IC50 growth inhibitory activity
Experimental: as §1

[6] = tested on: HT-29 cells; experiment: Test A: in vitro cytotoxicity, clonogenic survival of HT-29 cells; format: cell-based, human; conditions: 2 h drug treatment, colonies after 10 days, concentration at which there is a 1% cell survival
Excerpt: as §2, §3

[7] = tested on: IGROV (ovarian); experiment: Growth inhibition, MTT assay, IGROV; format: cell-based, human; conditions: 72-h drug exposure, read-out: IC50 growth inhibitory activity
Experimental: as §1

[8] = tested on: MDA231 (breast); experiment: Growth inhibition, MTT assay, MDA231; format: cell-based, human; conditions: MDA231, 72-h drug exposure, read-out: IC50 growth inhibitory activity
Experimental: as §1

[9] = Nucleophilic activation with sodium dimethyldithiocarbamate (DDTC) monitored by 31P NMR; format: physicochemical; conditions: DDTC 3 equiv, 3:4 THF:0.4 M cacodylate buffer, pH ~7.3, RT
Experimental: The quinone was dissolved in CH3CN (0.3 mL, or THF for 16a) and the activating agent (glutathione, or sodium dithionite) was dissolved in cacodylate buffer (0.4 mL, 0.4 M, pH 7.7). The buffer solution was added to the organic solution and the pH of the mixture was adjusted to ˜7.4. The reaction mixture was transferred to a 5-mm NMR tube, and the data acquisition was started (pulse delay 30 μs). Spectra were taken every 2.5 minutes for 0.5 h, then every 5 min for 0.5 h, then every 10 min for 1 h, and time points for each spectrum were assigned from the initiation of the reaction. Chemical shifts are reported relative to the TPPO reference. The temperature of the probe was maintained at 37° C., if necessary, using the Bruker variable temperature unit. The relative concentrations of the intermediates were determined by measuring the peak areas.
The Michael addition of sulfur nucleophiles to naphthoquinones is well known; and addition to the 3-position of the quinone might provide another pathway for phosphorodiamidate anion release. Two possible products could be predicted from the Michael addition of a nucleophile to the naphthoquinone. […] Activation of 16a with DDTC (3 equiv, 3:4 THF:0.4 M cacodylate buffer, pH˜7.3, RT) was monitored using ^31P NMR. […]

[10] = tested on: A4982LM cell line, a sub-line of the A498 human kidney carcinoma; experiment: Xenograft model, human tumor cells subcutaneously in nude mice; format: in vivo; conditions: Day 38, single dose of 25 mg/kg subcutaneously
Experimental: The cytotoxic properties of a compound of the invention can also be determined using in vivo pharmacological models which are well known to the art. For example, compound 16a was tested in a xenograft model. This assay consisted of injecting nude mice subcutaneously with human tumor cells. The tumors were allowed to grow until a measurable mass was present (22 days), and a single dose of 16a was administered subcutaneously. The tumor size was measured periodically and the growth inhibition of the tumor was determined. The A4982LM cell line, a sub-line of the A498 human kidney carcinoma, was used for the xenograft assay. The A4982LM sub-line, which has a high DT-diaphorase level (1010 nmol cytochrome c reduced/min/mg protein), was developed by implanting the A498 cell line in mice and collecting the lung metastases that formed from the original tumor.

[11] = tested on: A549 (lung); experiment: Growth inhibition, MTT assay, A549; format: cell-based, human; conditions: A549, 72-h drug exposure, read-out: IC50 growth inhibitory activity
Experimental: as §1

[12] = tested on: A498 (kidney); experiment: Growth inhibition, MTT assay, A498; format: cell-based, human; conditions: A498, 72-h drug exposure, read-out: IC50 growth inhibitory activity
Experimental: as §1

[13] = tested on: human tumor cell lines; experiment: Growth inhibition, MTT assay, series of human tumor cell lines (all cell lines); format: cell-based; conditions: all cell lines of Table 2, 72-h drug exposure
Experimental: as §1

NP(=O)(OCC1=CC(=O)c2ccccc2C1=O)N(CCBr)CCBr (stereo not shown) [Compound 16a, 2-(1,4-Naphthoquinonyl)methyl N,N-bis(2-bromoethyl) phosphorodiamidate]
IC50 [1]: 4.42 µM | LC99 [2]: 4.6 µM | IC50 [3]: 9.19 µM | IC50 [4]: 2.82 µM | IC50 [5]: 15.3 µM | LC99 [6]: 7.8 µM | IC50 [7]: 18.9 µM | IC50 [8]: 14.7 µM | time until quinone resonance disappeared and was replaced by phosphorodiamidate anion resonance [9]: ≤ 5 min | growth inhibition of the tumor [10]: 40% | IC50 [11]: 4.58 µM | IC50 [12]: 15.6 µM | IC50 in words, against all cell lines [13]: low micromolar range
